Measurements: article PMC10841833 (Cancer research, 2023)

Target: citron kinase (CIT/CRIK) (Homo sapiens, UniProt O14578)
Experiment: in vitro kinase assay
Format: biochemical

Sequence of citron kinase (CIT/CRIK) (O14578 whole entry): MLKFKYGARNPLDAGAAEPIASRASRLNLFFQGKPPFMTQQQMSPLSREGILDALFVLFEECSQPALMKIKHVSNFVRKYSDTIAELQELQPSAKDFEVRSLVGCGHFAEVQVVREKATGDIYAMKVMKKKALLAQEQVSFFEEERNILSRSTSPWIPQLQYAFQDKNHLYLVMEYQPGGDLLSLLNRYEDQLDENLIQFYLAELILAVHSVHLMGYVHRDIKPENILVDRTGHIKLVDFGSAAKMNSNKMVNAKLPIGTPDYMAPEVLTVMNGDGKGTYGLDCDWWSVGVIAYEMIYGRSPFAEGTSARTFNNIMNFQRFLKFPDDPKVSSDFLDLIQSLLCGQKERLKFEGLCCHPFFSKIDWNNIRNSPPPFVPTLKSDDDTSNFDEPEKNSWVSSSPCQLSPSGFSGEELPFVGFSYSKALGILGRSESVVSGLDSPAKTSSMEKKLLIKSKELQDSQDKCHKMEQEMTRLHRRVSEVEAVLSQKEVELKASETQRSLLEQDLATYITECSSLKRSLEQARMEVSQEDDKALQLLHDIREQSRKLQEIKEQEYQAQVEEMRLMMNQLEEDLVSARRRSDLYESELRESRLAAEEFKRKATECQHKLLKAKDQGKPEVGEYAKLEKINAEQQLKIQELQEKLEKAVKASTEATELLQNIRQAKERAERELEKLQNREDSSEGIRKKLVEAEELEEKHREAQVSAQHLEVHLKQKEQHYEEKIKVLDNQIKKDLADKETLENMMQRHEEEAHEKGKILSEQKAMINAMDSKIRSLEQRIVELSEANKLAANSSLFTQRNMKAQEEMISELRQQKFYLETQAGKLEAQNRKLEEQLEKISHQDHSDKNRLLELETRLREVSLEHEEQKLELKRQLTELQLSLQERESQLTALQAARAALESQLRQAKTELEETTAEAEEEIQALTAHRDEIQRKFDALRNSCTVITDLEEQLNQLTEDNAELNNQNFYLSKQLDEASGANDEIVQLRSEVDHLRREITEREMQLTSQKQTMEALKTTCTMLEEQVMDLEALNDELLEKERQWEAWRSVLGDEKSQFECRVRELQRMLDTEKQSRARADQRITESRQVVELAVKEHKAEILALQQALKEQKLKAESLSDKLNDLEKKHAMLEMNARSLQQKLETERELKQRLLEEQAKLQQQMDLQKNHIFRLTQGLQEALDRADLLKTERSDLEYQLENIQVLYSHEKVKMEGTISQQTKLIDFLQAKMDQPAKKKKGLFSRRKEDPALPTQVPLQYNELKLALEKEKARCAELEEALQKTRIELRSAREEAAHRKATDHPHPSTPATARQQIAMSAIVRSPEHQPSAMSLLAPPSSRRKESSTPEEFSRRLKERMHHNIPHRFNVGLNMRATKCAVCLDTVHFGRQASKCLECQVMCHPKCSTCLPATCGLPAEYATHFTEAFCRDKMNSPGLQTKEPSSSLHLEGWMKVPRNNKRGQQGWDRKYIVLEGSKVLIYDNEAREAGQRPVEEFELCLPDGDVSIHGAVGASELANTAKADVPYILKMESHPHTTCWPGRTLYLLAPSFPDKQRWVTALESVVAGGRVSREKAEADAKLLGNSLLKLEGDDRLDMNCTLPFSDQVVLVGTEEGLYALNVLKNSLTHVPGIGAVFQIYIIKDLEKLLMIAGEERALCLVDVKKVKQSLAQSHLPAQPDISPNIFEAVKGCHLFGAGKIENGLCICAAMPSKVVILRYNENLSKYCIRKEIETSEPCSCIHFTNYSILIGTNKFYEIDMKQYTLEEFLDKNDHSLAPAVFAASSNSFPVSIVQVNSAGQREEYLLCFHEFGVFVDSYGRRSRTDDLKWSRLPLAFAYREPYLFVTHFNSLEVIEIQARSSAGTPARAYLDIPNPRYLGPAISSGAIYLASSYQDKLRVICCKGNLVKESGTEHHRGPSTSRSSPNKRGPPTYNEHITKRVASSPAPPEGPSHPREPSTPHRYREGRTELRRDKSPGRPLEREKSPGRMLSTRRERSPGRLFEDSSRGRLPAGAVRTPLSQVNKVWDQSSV

Structure (SMILES): CC(=O)c1cnc2ccc(-c3cc(Cl)c(O)c(Cl)c3)nc2c1N[C@H]1CC[C@H](CN(C)C)CC1 [OTS-167]
- IC50: ~10 nM
